Results as given in the NIST ThermoML archive (doi:10.1016/j.jct.2018.03.016).

Conditions: Liquid; for mass density: Vibrating tube method; for speed of sound: Frequency=5 MHz, Single path-length method

CCC(=O)[O-].[NH3+]CCO [2-hydroxyethan-1-aminium propionate]
Conditions	mass density [kg/m3]	speed of sound [m/s]
298.08 K, 10000 kPa	1124.9	–
298.1 K, 30000 kPa	1131.1	–
298.11 K, 15000 kPa	1127.6	–
298.13 K, 35000 kPa	1132.5	–
298.15 K, 20000 kPa	1128.2	–
298.15 K, 25000 kPa	1129.4	–
298.16 K, 100 kPa	1121.1	–
303.03 K, 30000 kPa	1126.3	–
303.07 K, 25000 kPa	1124.9	–
303.07 K, 35000 kPa	1127.2	–
303.09 K, 10000 kPa	1121	–
303.09 K, 15000 kPa	1121.8	–
303.1 K, 20000 kPa	1123.3	–
303.15 K, 100 kPa	1116	1554.7
303.15 K, 1000 kPa	–	1558.7
303.15 K, 2000 kPa	–	1562.7
303.15 K, 3000 kPa	–	1566.7
303.15 K, 4000 kPa	–	1570.7
303.15 K, 5000 kPa	–	1574.7
303.15 K, 6000 kPa	–	1578.8
303.15 K, 7000 kPa	–	1582.9
303.15 K, 8000 kPa	–	1587
303.15 K, 9000 kPa	–	1591.1
303.15 K, 10000 kPa	–	1595.2
303.15 K, 11000 kPa	–	1599.4
303.15 K, 12000 kPa	–	1602.1
303.15 K, 13000 kPa	–	1606.3
303.15 K, 14000 kPa	–	1610.5
303.15 K, 15000 kPa	–	1613.3
303.15 K, 16000 kPa	–	1617.6
303.15 K, 17000 kPa	–	1620.4
303.15 K, 18000 kPa	–	1624.6
303.15 K, 19000 kPa	–	1628.9
303.15 K, 20000 kPa	–	1633.2
313.14 K, 100 kPa	1105.3	–
313.15 K, 100 kPa	–	1526.8
313.15 K, 1000 kPa	–	1531.9
313.15 K, 2000 kPa	–	1535.7
313.15 K, 3000 kPa	–	1539.5
313.15 K, 4000 kPa	–	1542.1
313.15 K, 5000 kPa	–	1546
313.15 K, 6000 kPa	–	1549.9
313.15 K, 7000 kPa	–	1553.8
313.15 K, 8000 kPa	–	1557.8
313.15 K, 9000 kPa	–	1561.7
313.15 K, 10000 kPa	–	1565.7
313.15 K, 11000 kPa	–	1569.7
313.15 K, 12000 kPa	–	1573.7
313.15 K, 13000 kPa	–	1577.7
313.15 K, 14000 kPa	–	1581.7
313.15 K, 15000 kPa	–	1585.8
313.15 K, 16000 kPa	–	1589.9
313.15 K, 17000 kPa	–	1594
313.15 K, 18000 kPa	–	1598.1
313.15 K, 19000 kPa	–	1602.2
313.15 K, 20000 kPa	–	1606.4
313.16 K, 15000 kPa	1111.3	–
313.17 K, 10000 kPa	1110.2	–
313.17 K, 35000 kPa	1117.8	–
313.18 K, 20000 kPa	1113.3	–
313.18 K, 30000 kPa	1116.2	–
313.19 K, 25000 kPa	1114.8	–
323.09 K, 10000 kPa	1098.3	–
323.1 K, 100 kPa	1093	–
323.1 K, 25000 kPa	1103.9	–
323.12 K, 30000 kPa	1105.5	–
323.14 K, 15000 kPa	1099.7	–
323.14 K, 20000 kPa	1102	–
323.14 K, 35000 kPa	1107.3	–
323.15 K, 100 kPa	–	1506.1
323.15 K, 1000 kPa	–	1509.8
323.15 K, 2000 kPa	–	1513.6
323.15 K, 3000 kPa	–	1517.3
323.15 K, 4000 kPa	–	1521.1
323.15 K, 5000 kPa	–	1524.9
323.15 K, 6000 kPa	–	1528.7
323.15 K, 7000 kPa	–	1533.8
323.15 K, 8000 kPa	–	1537.6
323.15 K, 9000 kPa	–	1541.5
323.15 K, 10000 kPa	–	1545.4
323.15 K, 11000 kPa	–	1549.2
323.15 K, 12000 kPa	–	1553.2
323.15 K, 13000 kPa	–	1558.4
323.15 K, 14000 kPa	–	1562.3
323.15 K, 15000 kPa	–	1566.3
323.15 K, 16000 kPa	–	1568.9
323.15 K, 17000 kPa	–	1572.9
323.15 K, 18000 kPa	–	1576.9
323.15 K, 19000 kPa	–	1581
323.15 K, 20000 kPa	–	1585
333.08 K, 35000 kPa	1096.1	–
333.09 K, 10000 kPa	1084.9	–
333.09 K, 15000 kPa	1087.4	–
333.09 K, 25000 kPa	1091.8	–
333.09 K, 30000 kPa	1093.9	–
333.1 K, 20000 kPa	1089.7	–
333.12 K, 100 kPa	1079.6	–
333.15 K, 100 kPa	–	1474.9
333.15 K, 1000 kPa	–	1479.7
333.15 K, 2000 kPa	–	1484.6
333.15 K, 3000 kPa	–	1488.3
333.15 K, 4000 kPa	–	1493.2
333.15 K, 5000 kPa	–	1497
333.15 K, 6000 kPa	–	1501.9
333.15 K, 7000 kPa	–	1505.7
333.15 K, 8000 kPa	–	1509.5
333.15 K, 9000 kPa	–	1514.5
333.15 K, 10000 kPa	–	1518.3
333.15 K, 11000 kPa	–	1523.3
333.15 K, 12000 kPa	–	1527.2
333.15 K, 13000 kPa	–	1531
333.15 K, 14000 kPa	–	1534.9
333.15 K, 15000 kPa	–	1540
333.15 K, 16000 kPa	–	1543.8
333.15 K, 17000 kPa	–	1547.7
333.15 K, 18000 kPa	–	1551.6
333.15 K, 19000 kPa	–	1555.5
333.15 K, 20000 kPa	–	1559.5
343.15 K, 100 kPa	–	1449.3
343.15 K, 1000 kPa	–	1453
343.15 K, 2000 kPa	–	1456.8
343.15 K, 3000 kPa	–	1461.8
343.15 K, 4000 kPa	–	1466.7
343.15 K, 5000 kPa	–	1471.7
343.15 K, 6000 kPa	–	1475.5
343.15 K, 7000 kPa	–	1480.5
343.15 K, 8000 kPa	–	1485.5
343.15 K, 9000 kPa	–	1489.3
343.15 K, 10000 kPa	–	1494.3
343.15 K, 11000 kPa	–	1499.4
343.15 K, 12000 kPa	–	1503.2
343.15 K, 13000 kPa	–	1508.2
343.15 K, 14000 kPa	–	1513.3
343.15 K, 15000 kPa	–	1517.2
343.15 K, 16000 kPa	–	1522.2
343.15 K, 17000 kPa	–	1526.1
343.15 K, 18000 kPa	–	1530
343.15 K, 19000 kPa	–	1533.8
343.15 K, 20000 kPa	–	1537.7
343.17 K, 100 kPa	1066	–
343.17 K, 20000 kPa	1076.6	–
343.17 K, 25000 kPa	1079	–
343.17 K, 30000 kPa	1081.8	–
343.18 K, 15000 kPa	1074.3	–
343.18 K, 35000 kPa	1084.1	–
343.19 K, 10000 kPa	1070.6	–
353.15 K, 100 kPa	–	1416
353.15 K, 1000 kPa	–	1421
353.15 K, 2000 kPa	–	1426.1
353.15 K, 3000 kPa	–	1431.2
353.15 K, 4000 kPa	–	1436.3
353.15 K, 5000 kPa	–	1441.4
353.15 K, 6000 kPa	–	1446.5
353.15 K, 7000 kPa	–	1451.7
353.15 K, 8000 kPa	–	1456.8
353.15 K, 9000 kPa	–	1463.1
353.15 K, 10000 kPa	–	1467
353.15 K, 11000 kPa	–	1473.3
353.15 K, 12000 kPa	–	1478.4
353.15 K, 13000 kPa	–	1482.4
353.15 K, 14000 kPa	–	1487.5
353.15 K, 15000 kPa	–	1492.6
353.15 K, 16000 kPa	–	1496.5
353.15 K, 17000 kPa	–	1500.4
353.15 K, 18000 kPa	–	1504.4
353.15 K, 19000 kPa	–	1509.5
353.15 K, 20000 kPa	–	1513.3
